Source: US8802439B2, “Methods for enhancing infectivity of retroviruses” (priority 2009, dated 2014)

What was measured:
SIV-GFP = assay: Infectivity of SIV-GFP virions (RT-normalized), GFP fluorescence via FACS; format: cell-based
Procedure: (§1) 293T cells were transfected with HIV-1-GFP, SIV-GFP, bMLV-GFP, and nMLV-GFP proviral constructs, and in each case CMV-VSV-G, in the presence or absence of PiB or excess Pin1 as described above. Released virions were normalized via RT assay (EnzChek® Reverse Transcriptase Assay Kit), and infectivity on naïve TZMb1 cells was analyzed by GFP fluorescence via FACS (% cells infected).
(§2) Infection assays for retrovirus: Single-round infections: CD4^+ TZM-bl 100,000 cells/well/mL were seeded onto 24-well plates 24 hours prior to infection. These cells were infected in quadruplicate to 24-well plates. Infectivity was scored using an enzymatic galactosidase activity assay. Specifically, infected TZM-bl cells were washed and lysed, and 20 μl of lysate was transferred to a 96-well plate for detecting β-galactosidase activity. 100 μl of reaction buffer Galacton-Star substrate (Applied Biosystems, Bedford, Mass.), diluted 1:50, was added to 20 μl of lysate, and the light emission was measured over 1 second in a microplate luminometer after 30 minutes incubation. For human PBMC infections, cells were exposed to 10 ng of wild-type virus for 6 hours, washed, and split into two flasks: one with 10 μM PiB added on day 0 and 3, and one without PiB. Replication was monitored by p24 ELISA. For measuring infectivity of GFP-virus, 50,000 TZMb1, sMAGI, OMK, Vero, BSC-1 and CV-1 cells/well/mL were seeded onto 6-well plates respectively 24 hours prior to infection. Viruses were used to infect in duplicate wells, incubated for 48 hours, washed with PBS, trypsinized, fixed in 1% formaldehyde and subsequently analyzed by fluorescence-activated cell sorting (FACS) for percentage cells infected.
[…]. In brief, 293T cells were transfected with a SIV-GFP (Mac293), a CMV driven plasmid encoding VSV-G envelope protein alone, or in the presence of 2.0 μM PiB, 10.0 μM PiB, 20.0 μM PiB, or 40.0 μM PiB. […] Infectivity was measured as GFP fluorescence via FACS. […]
We then examined effect of Pin blocking in non-human primate producer cells on viral infectivity. […] Infectivity was analyzed by GFP fluorescence via FACS. […]

bMLV-GFP = assay: Infectivity of bMLV-GFP virions (RT-normalized), GFP fluorescence via FACS; format: cell-based
Procedure: as §1
as §2, with “For human PBMC infections, cells were exposed to 10 ng of wild-type virus for 6 hours, washed, and split into two flasks: one with 10 μM PiB added on day 0 and 3, and one without PiB.” left out, “For measuring infectivity of GFP-virus, 50,000 TZMb1, sMAGI, OMK, Vero, BSC-1 and CV-1 cells/well/mL were seeded onto 6-well plates respectively 24 hours prior to infection.” left out
We further examined whether blocking Pin1 in producer cells can enhance the infectivity of retroviruses in different primate target cells. […] Infectivity was analyzed by GFP fluorescence via FACS. […] If more cells are infected than the number infected by viruses from untreated cells, this is expressed as a value above 100%—e.g. 2000 cells/10,000 vs 4000 cells/10,000 would be 100% and 200% respectively. […]
In addition to human producer cells, we also examined effect of blocked Pin activity on infectivity of viruses produced in mouse cell lines and nonhuman primate cell lines. […] Infectivity was analyzed by GFP fluorescence via FACS. […]

293T cells = conditions: cell count and trypan blue staining (data not shown)
From the text: To examine a potential role for Pin1 in HIV-1 replication we used two inhibitors of Pin1: juglone and PiB. […] 293T cells were transfected with a proviral construct encoding wild-type HIV-1 in the presence or absence of PiB or juglone.

Pin1 PPIase = Pin1 PPIase (Homo sapiens, UniProt Q13526); conditions: cited from earlier work
[1] = cited from earlier work
[2] = produced in 293T with PiB, TZMb1 cells

Sequence of Pin1 PPIase (Q13526 whole entry): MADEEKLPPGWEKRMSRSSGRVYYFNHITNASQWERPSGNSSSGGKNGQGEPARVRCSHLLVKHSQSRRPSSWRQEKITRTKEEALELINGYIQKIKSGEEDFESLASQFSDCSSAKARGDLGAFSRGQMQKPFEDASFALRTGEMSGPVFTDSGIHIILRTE

## CCOC(=O)CN1C(=O)c2ccc3c4c(ccc(c24)C1=O)C(=O)N(CC(=O)OCC)C3=O [PiB, diethyl-1,3,6,8-tetrahydro-1,3,6,8-tetraoxobenzo[lmn][3,8]phenanthroline-2,7-diacetate]
SIV-GFP; produced in 293T with 2.0, 10.0, 20.0 or 40.0 μM PiB
  infectivity of VSV-G pseudotyped macaque SIV-GFP: enhanced infectivity in a dose dependent manner
SIV-GFP; [2]
  boost of SIV-GFP infectivity: 1.5 fold
SIV-GFP; sMAGI, Vero, CV-1 (b135 also OMK) producer cells, human TZM/reporter cells
  infectivity of SIV produced in non-human primate cells: enhanced infectivity
bMLV-GFP; MEF producer cells with PiB, TZM target cells
  infectivity of MLV produced in mouse embryonic fibroblasts: enhanced infectivity
bMLV-GFP; [2]
  boost of bMLV-GFP infectivity: 2 fold
bMLV-GFP; produced with PiB, TZM, OMK, sMAGI, Vero, CV-1 target cells
  infectivity of bMLV-GFP in primate target cell panel: enhanced infectivity
293T cells
  producer cell viability: no effect
Pin1 PPIase
  IC50 of Pin1 PPIase activity in vitro: low mM
[1]; 37°
  stability at 37°: instability
[1]; aqueous solution
  stability in aqueous solution: breaks down in aqueous solution
